Assay results reported in US7250389B1, “Antifungal compound and process for producing the same” (Meiji Seika Kaisha, Ltd., priority 1998, dated 2007).
Read-outs that look alike come from different tables or passages of the source.

Legend:
[1] = test system: cucumber anthracnose fungi (Colletotricum lagenarium); type: in vivo; conditions: 200 ppm spray; cucumber seedlings; seven days after inoculation
[2] = test system: rice blast fungi (Pyricularia oryzae); type: in vivo
[3] = test system: cucumber downy mildew (pathogenic fungi: Peseudoperonocpora cubensis); test: Test on effect of protecting cucumber against downy mildew; type: in vivo; conditions: 200 ppm spray; cucumber seedlings; seven days after inoculation
Method: Cucumber seedlings (variety: Suyo) of first leaf development stage raised in each of plastic pots containing compost were provided. […] The agent was air dried. Thereafter, a conidial suspension, which had been previously prepared by scraping lesion portions on the undersurface of cucumber suffering from cucumber downy mildew (pathogenic fungi: […] cubensis), was evenly inoculated by spraying. The pots were then kept under moist chamber conditions at 20° C. for 24 hr to perform infection. Thereafter, they were transferred to an environment control room kept at 18° C. at night and at 22° C. in the daytime to induce the disease.

[4] = test system: cucumber anthracnose fungi (Colletotricum lagenarium); test: Confirmation test on persistence of the effect of protecting cucumber against anthracnose; type: in vivo; conditions: for Protective value, Plot 2: inoculation on the day subsequent to holding under fluorescent lamp; for Protective value, Plot 3: inoculation on the day subsequent to holding under sunlight; for Protective value, Plot 1: inoculation on the same day as application
Text: Cucumber seedlings (variety: Suyo) of first leaf development stage raised in each of plastic pots containing compost were provided. […] The agent was air dried. On the same day or 24 hr after the air drying, a conidial suspension of cucumber anthracnose fungi (Colletotricum lagenarium), which had been previously cultured in a potato soup agar medium, was evenly inoculated by spraying. […] Experimental Plots: Plot 1: Plot subjected to inoculation on the same day as application: Inoculation was carried out on the same day as the air drying, and the pots were allowed to stand under moist chamber conditions at 26° C. for 24 hr and then allowed to stand for 7 days in an environment control room kept at 18° C. at night and at 25° C. in the daytime. Plot 2: Plot subjected to inoculation on the day subsequent to holding under fluorescent lamp: After the air drying, the pots were placed in an environment control room under an indoor fluorescent lamp (the control room being kept at 18° C. at night and at 25° C. in the daytime with the fluorescent lamp being turned on for 8 hr in the daytime). 24 hr after the application of the agent, inoculation was carried out. Thereafter, the pots were allowed to stand under moist chamber conditions at 26° C. for 24 hr and then allowed to stand for 7 days in an environment control room kept at 18° C. at night and at 25° C. in the daytime. Plot 3: Plot subjected to inoculation on the day subsequent to holding under sunlight: After the air drying, the pots were placed outdoors under sunlight in the daytime (8 hr) and then allowed to stand in an environment control room kept at 18° C. 24 hr after the application of the agent, inoculation was carried out. Thereafter, the pots were allowed to stand under moist chamber conditions at 26° C. for 24 hr and then allowed to stand for 7 days in an environment control room kept at […] at night and at 25° C. in the daytime.

[5] = Photostability test (percentage residue as determined by HPLC); type: physicochemical; conditions: thin film
Method: In consideration of use in agricultural chemicals, the following test was carried out to obtain data on photostability against exposure to sunlight. Date and Time of Test: First: 5 hr from 12:00 to 17:00 on May 26, 1997 Second: 6 hr from 10:00 to 16:00 on May 28, 1997 Place: For both tests, Odawara-shi, Kanagawa Weather: For both tests, fine […] Acetone was shortly evaporated. As a result, each sample was brought into a white thin film. The films thus obtained were exposed to sunlight. After the completion of exposure to sunlight, the residual amount of UK-2A and the residual amount of the compound of Example 18 were quantitatively determined by HPLC (column: YMC-PACKODS-AS-56.0×150 mm (A-312)), mobile phase: acetonitrile-water=70 : 30 (v/v), detection wavelength: 254 nm).

blast (rice seedlings) = test: Photostability test (effect of protecting rice seedlings against blast, outdoors); type: in vivo; conditions: 200 ppm, 100 mL per m^2; outdoor rice seedlings; lesion area 19 days after application
Text: Rice seedlings of three-leaf stage (variety: Koshihikari) raised outdoors in an upland field bed (1 m×1 m) for rice seedlings were covered with a vinyl tunnel, only at night, with ears of rice suffering from blast being suspended (height 40 cm) to infect rice seedlings with blast. After the incipient infection was confirmed, agent solutions having an agent concentration of 200 ppm prepared by varying the agent concentration by the method as described in Test Example 2 each were applied in an amount of 100 mL per m^2 by means of a sprayer. For one week after the application of the agent, the rice seedlings were covered with the vinyl tunnel at night to promote the infection. 19 days after the application of the agent, the lesion area of the leaf was measured, and the protective value was calculated by the following equation.
Protective value=(1−average lesion area of treated plot)/lesion area of untreated plot)×100

CCCCCCC1C(=O)OC(C)C(NC(=O)c2cccc(NC=O)c2O)C(=O)OC(C)C1OC(=O)CC(C)C (stereo not drawn) [Antimycin A, reference compound]
Protective value [1]: 17 | Protective value ([2]; 100 ppm spray, rice seedlings, lesions counted seven days after inoculation): 83

CC(C)C(=O)O[C@H]1[C@H](C)OC(=O)[C@@H](NC(=O)c2cccnc2O)COC(=O)[C@@H]1Cc1ccccc1 [Ex. 4, (2R,3R,4S,7S)-7-(2-Hydroxynicotinylamino)-2-benzyl-5,9-dioxa-3-isobutyryloxy-4-methyl-1,6-cyclononanedione]
Protective value [3]: 78 | Protective value ([2]; in vivo): 86

CC(C)C(=O)O[C@H]1[C@H](C)OC(=O)[C@@H](NC(=O)c2cccc(O)n2)COC(=O)[C@@H]1Cc1ccccc1 [Ex. 5, (2R,3R,4S,7S)-7-(6-Hydroxypicolinylamino)-2-benzyl-5,9-dioxa-3-isobutyryloxy-4-methyl-1,6-cyclononanedione]
Protective value [3]: 100 | Protective value ([2]; in vivo): 90

CC(C)C(=O)O[C@H]1[C@H](C)OC(=O)[C@@H](NC(=O)c2nc3ccccc3nc2O)COC(=O)[C@@H]1Cc1ccccc1 [Ex. 8, (2R,3R,4S,7S)-7-(3-Hydroxy-2-quinoxalinecarboxylamino)-2-benzyl-5,9-dioxa-3-isobutyryloxy-4-methyl-1,6-cyclononanedione]
Protective value [1]: 100 | Protective value ([2]; in vivo): 100

COc1ccnc(C(=O)N[C@H]2COC(=O)[C@H](Cc3ccccc3)[C@@H](OC(=O)C(C)C)[C@H](C)OC2=O)c1OC(C)=O [Ex. 18, (2R,3R,4S,7S)-7-(3-Acetoxy-4-methoxypicolinylamino)-2-benzyl-5,9-dioxa-3-isobutyryloxy-4-methyl-1,6-cyclo-nonanedione]
Protective value, Plot 2 ([4]; 10 ppm): 93 | Protective value, Plot 3 ([4]; 10 ppm): 60 | Protective value, Plot 1 ([4]; 10 ppm): 67 | Protective value, Plot 2 ([4]; 30 ppm): 93 | Protective value, Plot 3 ([4]; 30 ppm): 80 | Protective value, Plot 1 ([4]; 30 ppm): 67 | Protective value, Plot 2 ([4]; 100 ppm): 93 | Protective value, Plot 3 ([4]; 100 ppm): 93 | Protective value, Plot 1 ([4]; 100 ppm): 87 | residual effect under sunlight compared with UK-2A ([4]; plot 3): much superior to UK-2A | difference in protective value between UK-2A and the compound of Example 18 ([4]; plots 1 and 2): no significant difference | Residual amount after exposure to sunlight ([5]; First test: 5 hr sunlight): 98% | Residual amount after exposure to sunlight ([5]; Second test: 6 hr sunlight): 93% | Protective value (blast (rice seedlings)): 95

COc1cccc(C(=O)N[C@H]2COC(=O)[C@H](Cc3ccccc3)[C@@H](OC(=O)C(C)C)[C@H](C)OC2=O)c1O [Ex. 38, (2R,3R,4S,7S)-7-(3-Methoxysalicylamino)-2-benzyl-5,9-dioxa-3-isobutyryloxy-4-methyl-1,6-cyclononanedione]
Protective value ([2]; in vivo): 83

CC(C)C(=O)O[C@H]1[C@H](C)OC(=O)[C@@H](NC(=O)c2ccccc2O)COC(=O)[C@@H]1Cc1ccccc1 [Ex. 39, (2R,3R,4S,7S)-7-Salicylamino-2-benzyl-5,9-dioxa-3-isobutyryloxy-4-methyl-1,6-cyclononanedione]
Protective value ([2]; in vivo): 98

CC(C)C(=O)O[C@H]1[C@H](C)OC(=O)[C@@H](NC(=O)c2cccc([N+](=O)[O-])c2O)COC(=O)[C@@H]1Cc1ccccc1 [Ex. 40, (2R,3R,4S,7S)-7-(3-Nitrosalicyl)amino-2-benzyl-5,9-dioxa-3-isobutyryloxy-4-methyl-1,6-cyclononanedione]
Protective value [3]: 100

CC(C)C(=O)O[C@H]1[C@H](C)OC(=O)[C@@H](NC(=O)c2cccc(N)c2O)COC(=O)[C@@H]1Cc1ccccc1 [Ex. 41, (2R,3R,4S,7S)-7-(3-Aminosalicyl)amino-2-benzyl-5,9-dioxa-3-isobutyryloxy-4-methyl-1,6-cyclononanedione]
Protective value [1]: 100 | Protective value [3]: 88 | Protective value ([2]; in vivo): 86

CC(C)C(=O)O[C@H]1[C@H](C)OC(=O)[C@@H](NC(=O)c2cc(Cl)ccc2O)COC(=O)[C@@H]1Cc1ccccc1 [Ex. 46, (2R,3R,4S,7S)-7-(5-Chlorosalicyl)amino-2-benzyl-5,9-dioxa-3-isobutyryloxy-4-methyl-1,6-cyclononanedione]
Protective value [1]: 100

CC(C)C(=O)O[C@H]1[C@H](C)OC(=O)[C@@H](NC(=O)c2cc(NC=O)ccc2O)COC(=O)[C@@H]1Cc1ccccc1 [Ex. 52, (2R,3R,4S,7S)-7-(5-Formylaminosalicyl)amino-2-benzyl-5,9-dioxa-3-isobutyryloxy-4-methyl-1,6-cyclononanedione]
Protective value [3]: 100

COc1ccnc(C(=O)N[C@H]2COC(=O)[C@H](Cc3ccccc3)[C@@H](OC(=O)C(C)C)[C@H](C)OC2=O)c1O [UK-2A, reference compound]
Protective value, Plot 2 ([4]; 10 ppm): 93 | Protective value, Plot 3 ([4]; 10 ppm): 27 | Protective value, Plot 1 ([4]; 10 ppm): 80 | Protective value, Plot 2 ([4]; 30 ppm): 100 | Protective value, Plot 3 ([4]; 30 ppm): 60 | Protective value, Plot 1 ([4]; 30 ppm): 100 | Residual amount after exposure to sunlight ([5]; First test: 5 hr sunlight): 33% | Residual amount after exposure to sunlight ([5]; Second test: 6 hr sunlight): 64% | Protective value (blast (rice seedlings)): 63
